Our source for the Km values is paper PMC11500593, “Molecular cloning and biochemical characterization of indole-3-acetic acid methyltransferase from Japanese star anise (Illicium anisatum)” (Plant Biotechnology, 2024).

One may read the Km as the substrate concentration at which the rate is half of its maximum.

The subject of the experiment is T1, IaIAMT.
T1 construct: full-length cDNA from leaf RNA, N-terminal MBP fusion (pCold-MBP), E. coli BL21(DE3), purified on gelatinized corn starch; MBP cleavage not mentioned
Put plainly: radiochemical methyltransferase assay, […]-SAM, ethyl acetate extraction, scintillation counting. The format is biochemical, Illicium anisatum. Conditions: co-substrate [Me-14C]-SAM; sodium phosphate pH 7.0; 25°C; 10 min; IAA 0–400 µM; MBP fusion; read-out: apparent Km.

Turning to `O=C(O)Cc1c[nH]c2ccccc12` [IAA, indole-3-acetic acid], the Michaelis-Menten constant (Km) is 122 ± 32.9 µM.
